Results: patent publication EP2951180B1, “2,6,7,8 SUBSTITUTED PURINES AS HDM2 INHIBITORS” (Merck Sharp & Dohme Corp., priority 2013, dated 2014)

Target: T1, HDM2 (Homo sapiens, UniProt Q00987)
T1 construct: Thioredoxin (N); made in house; host or cells: E. coli strain BL21(DE3)Rosetta
Test: FRET assay (HDM2 inhibition; method not described in this part)
Type: binding

T1 sequence (Q00987 17-125): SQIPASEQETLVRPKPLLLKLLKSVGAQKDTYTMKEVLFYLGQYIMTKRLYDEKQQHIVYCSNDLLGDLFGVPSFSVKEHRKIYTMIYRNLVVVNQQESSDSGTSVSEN

Cc1cccc(-c2nc3nc(C(=O)O)nc(N[C@H](C)C4CCC4)c3n2Cc2ccc(C(F)(F)F)cc2)c1C [Example 1.126, 6-{[(1R)-1-cyclobutylethyl]amino}-8-(2,3-dimethylphenyl)-7-[4-(trifluoromethyl)benzyl]-7H-purine-2-carboxylic acid]
IC50 (Table 1): 18 nM

Cc1cccc(-c2nc3nc(C(=O)O)nc(N[C@H](C)C4CCC4)c3n2Cc2ccc(C(F)(F)F)cc2)c1 [Example 2.11, 6-{[(1R)-1-cyclobutylethyl]amino}-8-(3-methylphenyl)-7-[4-(trifluoromethyl)benzyl]-7H-purine-2-carboxylic acid]
IC50 (Table 2): 36.6 nM

Cc1ccc(N(C)C)cc1-c1nc2nc(C(=O)O)nc(N[C@H](C)C3CCC3)c2n1Cc1ccc(C(F)(F)F)cc1 [Example 1.39, 6-{[(1R)-1-cyclobutylethyl]amino}-8-[5-(dimethylamino)-2-methylphenyl]-7-[4-(trifluoromethyl)benzyl]-7H-purine-2-carboxylic acid]
IC50 (Table 1): 58.5 nM

C[C@@H](Nc1nc(C(=O)O)nc2nc(-c3ccccn3)n(Cc3ccc(C(F)(F)F)cc3)c12)C1CCC1 [Example 1.16, 6-{[(1R)-1-cyclobutylethyl]amino}-8-pyridin-2-yl-7-[4-(trifluoromethyl)benzyl]-7H-purine-2-carboxylic acid]
IC50 (Table 1): 25.3 nM

C[C@@H](Nc1nc(C(=O)O)nc2nc(-c3cc(C(C)(C)C)ccn3)n(Cc3ccc(C(F)(F)F)cc3)c12)C1CCC1 [Example 1.53, 8-(4-tert-butylpyridin-2-yl)-6-{[(1R)-1-cyclobutylethyl]amino}-7-[4-(trifluoromethyl)benzyl]-7H-purine-2-carboxylic acid]
IC50 (Table 1): 4.36 nM

CC(C)c1ccnc(-c2nc3nc(C(=O)O)nc(N[C@H](C)C4CCC4)c3n2Cc2ccc(OC(F)(F)F)cc2)c1 [Example 1.72, 6-{[(1R)-1-cyclobutylethyl]amino}-8-[4-(1-methylethyl)pyridin-2-yl]-7-[4-(trifluoromethoxy)benzyl]-7H-purine-2-carboxylic acid]
IC50 (Table 1): 12.3 nM

Cc1ccc(OCCCO)c(-c2nc3nc(C(=O)O)nc(N[C@H](C)C4CC4)c3n2Cc2ccc(C#N)cc2)c1 [Example 4.16, (R)-7-(4-cyanobenzyl)-6-((1-cyclopropylethyl)amino)-8-(2-(3-hydroxypropoxy)-5-methylphenyl)-7H-purine-2-carboxylic acid]
IC50 (Table 4): 481 nM

C[C@@H](Nc1nc(C(=O)O)nc2nc(-c3cccc(OC(F)(F)F)c3)n(Cc3ccc(C(F)(F)F)cc3)c12)C1CCC1 [Example 2.39, 6-{[(1R)-1-cyclobutylethyl]amino}-8-[3-(trifluoromethoxy)phenyl]-7-[4-(trifluoromethyl)benzyl]-7H-purine-2-carboxylic acid]
IC50 (Table 2): 52 nM

C[C@@H](Nc1nc(C(=O)O)nc2nc(-c3cc(C4CCC4)ccn3)n(Cc3ccc(C(F)(F)F)cc3)c12)C1CCC1 [Example 1.54]
IC50 (Table 1): 5.61 nM

CCc1ccc(OCOC)c(-c2nc3nc(C(=O)O)nc(N[C@H](C)C4CCC4)c3n2Cc2ccc(C(F)(F)F)cc2)c1 [Example 1.36, 6-{[(1R)-1-cyclobutylethyl]amino}-8-[5-ethyl-2-(methoxymethoxy)pheny 1]-7-[4-(trifluoromethyl)benzyl]-7H-purine-2-carboxylic acid]
IC50 (Table 1): 23.1 nM

Cc1cccc(-c2nc3nc(C(=O)O)nc(N[C@H](C)C4CCC4)c3n2Cc2ccc(Cl)cc2Cl)c1 [Example 5.11, 6-{[(1R)-1-cyclobutylethyl]amino}-7-(2,4-dichlorobenzyl)-8-(3-methylphenyl)-7H-purine-2-carboxylic acid]
IC50 (Table 5): 259 nM

C[C@@H](Nc1nc(C(=O)O)nc2nc(-c3cnn(C)c3)n(Cc3ccc(C(F)(F)F)cc3)c12)C1CC1 [Example 2.35, 6-{[(1R)-1-cyclopropylethyl]amino}-8-(1-methyl-1H-pyrazol-4-yl)-7-[4-(trifluoromethyl)benzyl]-7H-purine-2-carboxylic acid]
IC50 (Table 2): 510 nM

Cc1cc(C(C)C)cc(-c2nc3nc(C(=O)O)nc(N[C@H](C)C4CCC4)c3n2Cc2ccc(C(F)(F)F)cc2)n1 [Example 1.93, 6-{[(1R)-1-cyclobutylethyl]amino}-8-[6-methyl-4-(1-methylethyl)pyridin-2-yl]-7-[4-(trifluoromethyl)benzyl]-7H-purine-2-carboxylic acid]
IC50 (Table 1): 19.1 nM

Cc1cc(-c2nc3nc(C(=O)O)nc(N[C@H](C)C4CC4)c3n2Cc2ccc(C(F)(F)F)cc2)ccn1 [Example 1.118, 6-{[(1R)-1-cyclopropylethyl]amino} -8-(2-methylpyridin-4-yl)-7-[4-(trifluoromethyl)benzyl]-7H-purine-2-carboxylic acid]
IC50 (Table 1): 1370 nM

COc1ccnc(-c2nc3nc(C(=O)O)nc(N[C@H](C)C4CCC4)c3n2Cc2ccc(C(F)(F)F)cc2)c1C [Example 1.74, 6-{[(1R)-1-cyclobutylethyl]amino}-8-(4-methoxy-3-methylpyridin-2-yl)-7-[4-(trifluoromethyl)benzyl]-7H-purine-2-carboxylic acid]
IC50 (Table 1): 72.5 nM

Cc1cc(OC(F)(F)F)ccc1-c1nc2nc(C(=O)O)nc(N[C@H](C)C3CC3)c2n1Cc1ccc(C(F)(F)F)cc1 [Example 2.54, 6-{[(1R)-1-cyclopropylethyl]amino}-8-[2-methyl-4-(trifluoromethoxy)phenyl]-7-[4-(trifluoromethyl)benzyl]-7H-purine-2-carboxylic acid]
IC50 (Table 2): 826 nM

Cc1ccn(-c2ccnc(-c3nc4nc(C(=O)O)nc(N[C@H](C)C5CCC5)c4n3Cc3ccc(C(F)(F)F)cc3)c2)n1 [Example 1.48, 6-{[(1R)-1-cyclobutylethyl]amino}-8-[4-(3-methyl-1H-pyrazol-1-yl)pyridin-2-yl]-7-[4-(trifluoromethyl)benzyl]-7H-purine-2-carboxylic acid]
IC50 (Table 1): 2260 nM

Cc1cccc(-c2nc3nc(C(=O)O)nc(NCC4CC4)c3n2C(C)c2ccc(Cl)cc2)c1 (stereo not drawn) [Example 5.2, 7-(1-(4-chlorophenyl)ethyl)-6-((cyclopropylmethyl)amino)-8-(m-tolyl)-7H-purine-2-carboxylic acid]
IC50 (Table 5): 984 nM

C[C@@H](Nc1nc(C(=O)O)nc2nc(-c3cnc(N(C)C)nc3)n(Cc3ccc(C(F)(F)F)cc3)c12)C1CC1 [Example 2.70, 6-{[(1R)-1-cyclopropylethyl]amino}-8-[2-(dimethylamino)pyrimidin-5-yl]-7-[4-(trifluoromethyl)benzyl]-7H-purine-2-carboxylic acid]
IC50 (Table 2): 1020 nM

C[C@@H](Nc1nc(C(=O)O)nc2nc(-c3cc(N(C)C)ccc3OC(F)(F)F)n(Cc3ccc(C(F)(F)F)cc3)c12)C1CCC1 [Example 1.1, (R)-6-((1-cyclobutylethyl)amino)-8-(5-(dimethylamino)-2-(trifluoromethoxy)phenyl)-7-(4-(trifluoromethyl)benzyl)-7H-purine-2-carboxylic acid]
IC50 (Table 1): 11.4 nM

C[C@@H](Nc1nc(C(=O)O)nc2nc(-c3cc(C(C)(C)C)ccn3)n(Cc3ccc(C(F)(F)F)c(F)c3)c12)C1CCC1 [Example 1.76, 8-(4-tert-butylpyridin-2-yl)-6-{[(1R)-1-cyclobutylethyl]amino}-7-[3-fluoro-4-(trifluoromethyl)benzyl]-7H-purine-2-carboxylic acid]
IC50 (Table 1): 8.49 nM

C[C@@H](Nc1nc(C(=O)O)nc2nc(-c3ccc4sccc4c3)n(Cc3ccc(Cl)cc3)c12)C1CC1 [Example 2.7, 8-(1-benzothiophen-5-yl)-7-(4-chlorobenzyl)-6-{[(1R)-1-cyclopropylethyl]amino}-7H-purine-2-carboxylic acid]
IC50 (Table 2): 259 nM

Cc1cccc(C)c1-c1nc2nc(C(=O)O)nc(N[C@H](C)C3CC3)c2n1Cc1ccc(C(F)(F)F)cc1 [Example 2.62, 6-{[(1R)-1-cyclopropylethyl]amino}-8-(2,6-dimethylphenyl)-7-[4-(trifluoromethyl)benzyl]-7H-purine-2-carboxylic acid]
IC50 (Table 2): 65.6 nM

Cc1ccc(OCCC(=O)NCCO)c(-c2nc3nc(C(=O)O)nc(N[C@H](C)C4CC4)c3n2Cc2ccc(Cl)cc2)c1 [Example 4.12, (R)-7-(4-chlorobenzyl)-6-((1-cyclopropylethyl)amino)-8-(2-(3-((2-hydroxyethyl)amino)-3-oxopropoxy)-5-methylphenyl)-7H-purine-2-carboxylic acid]
IC50 (Table 4): 348 nM

COCCCOc1ccc(C)cc1-c1nc2nc(C(=O)O)nc(N[C@H](C)C3CCC3)c2n1Cc1ccc(Cl)cc1 [Example 4.4, (R)-7-(4-chlorobenzyl)-6-((1-cyclobutylethyl)amino)-8-(2-(3-methoxypropoxy)-5-methylphenyl)-7H-purine-2-carboxylic acid]
IC50 (Table 4): 48.7 nM

Cc1cccc(-c2nc3nc(C(=O)O)nc(N[C@H](C)C4CC4)c3n2Cc2ccc(C(F)(F)F)c(Cl)c2)c1 [Example 5.15, 7-[3-chloro-4-(trifluoromethyl)benzyl]-6-{[(1R)-1-cyclopropylethyl]amino}-8-(3-methylphenyl)-7H-purine-2-carboxylic acid]
IC50 (Table 5): 609 nM

C[C@@H](Nc1nc(C(=O)O)nc2nc(-c3ccc(N4CCOCC4)cc3)n(Cc3ccc(C(F)(F)F)cc3)c12)C1CC1 [Example 1.97, 6-{[(1R)-1-cyclopropylethyl]amino} -8-(4-morpholin-4-ylphenyl)-7-[4-(trifluoromethyl)benzyl]-7H-purine-2-carboxylic acid]
IC50 (Table 1): 1540 nM

CC(C)Oc1cccc(-c2nc3nc(C(=O)O)nc(N[C@H](C)C4CCC4)c3n2Cc2ccc(C(F)(F)F)cc2)c1 [Example 1.127, 6-{[(1R)-1-cyclobutylethyl]amino}-8-[3-(1-methylethoxy)phenyl]-7-[4-(trifluoromethyl)benzyl]-7H-purine-2-carboxylic acid]
IC50 (Table 1): 38.7 nM

Cc1cccc(-c2nc3nc(C(=O)O)nc(N[C@H](C)C4CCC4)c3n2Cc2ccc(C(F)(F)F)cc2F)c1 [Example 5.17, 6-{[(1R)-1-cyclobutylethyl]amino}-7-[2-fluoro-4-(trifluoromethyl)benzyl]-8-(3-methylphenyl)-7H-purine-2-carboxylic acid]
IC50 (Table 5): 74.3 nM

CCc1ccc(Cl)c(-c2nc3nc(C(=O)O)nc(N[C@H](C)C4CCC4)c3n2Cc2ccc(C(F)(F)F)cc2)c1 [Example 1.2, (R)-8-(2-chloro-5-ethylphenyl)-6-((1-cyclobutylethyl)amino)-7-(4-(trifluoromethyl)benzyl)-7H-purine-2-carboxylic acid]
IC50 (Table 1): 23.7 nM
